This is an account of results in paper PMC8048867 (Chemmedchem, 2020).

For one assay, the target named is T1, ADAM10 (Homo sapiens, UniProt O14672).
T1 sequence (O14672 214-748): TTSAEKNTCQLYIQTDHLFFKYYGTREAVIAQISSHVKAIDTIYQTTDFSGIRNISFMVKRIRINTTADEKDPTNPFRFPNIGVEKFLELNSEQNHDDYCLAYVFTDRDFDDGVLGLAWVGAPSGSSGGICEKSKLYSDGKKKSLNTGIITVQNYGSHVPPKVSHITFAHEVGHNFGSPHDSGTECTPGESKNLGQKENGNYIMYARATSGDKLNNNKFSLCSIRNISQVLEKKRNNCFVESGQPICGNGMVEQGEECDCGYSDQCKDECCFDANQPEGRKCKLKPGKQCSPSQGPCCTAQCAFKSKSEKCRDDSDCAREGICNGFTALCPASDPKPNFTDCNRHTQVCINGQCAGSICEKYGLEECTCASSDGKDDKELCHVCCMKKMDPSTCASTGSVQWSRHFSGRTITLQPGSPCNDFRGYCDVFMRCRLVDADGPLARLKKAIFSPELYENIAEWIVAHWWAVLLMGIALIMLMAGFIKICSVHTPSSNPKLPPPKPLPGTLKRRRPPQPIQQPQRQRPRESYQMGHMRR
Put plainly: off-target proteinase inhibition ADAM10. To be noted: read-out: Relative enzyme activity ADAM10. The format is biochemical.

The target in the next assay is ADAM17 (Homo sapiens, UniProt P78536). As to the kind of experiment: off-target proteinase inhibition ADAM17. The format is biochemical. As to conditions: read-out: Relative enzyme activity ADAM17.
Sequence of ADAM17 (P78536 215-824): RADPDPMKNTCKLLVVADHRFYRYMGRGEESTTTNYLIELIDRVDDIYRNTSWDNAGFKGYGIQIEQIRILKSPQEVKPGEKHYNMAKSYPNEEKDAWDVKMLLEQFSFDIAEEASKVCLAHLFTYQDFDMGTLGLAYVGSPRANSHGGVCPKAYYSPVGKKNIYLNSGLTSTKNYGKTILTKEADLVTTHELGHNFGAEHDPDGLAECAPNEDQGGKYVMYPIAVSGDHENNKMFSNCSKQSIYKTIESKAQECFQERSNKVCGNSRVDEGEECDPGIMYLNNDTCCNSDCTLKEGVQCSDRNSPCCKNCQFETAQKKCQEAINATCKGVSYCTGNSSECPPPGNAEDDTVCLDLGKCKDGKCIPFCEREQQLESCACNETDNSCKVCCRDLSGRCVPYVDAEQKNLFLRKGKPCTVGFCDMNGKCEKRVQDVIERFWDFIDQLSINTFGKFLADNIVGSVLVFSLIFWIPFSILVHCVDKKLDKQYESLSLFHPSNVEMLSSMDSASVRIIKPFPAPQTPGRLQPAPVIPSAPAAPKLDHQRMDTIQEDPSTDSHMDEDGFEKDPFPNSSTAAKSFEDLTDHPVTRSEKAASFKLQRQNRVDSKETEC
A further assay concerns the target MMP9 (Homo sapiens, UniProt P14780). Put plainly: off-target proteinase inhibition MMP9. The format is biochemical. As to conditions: read-out: Relative enzyme activity MMP9.
Assay [1] has as its target T2, recombinant human meprin α (Homo sapiens, UniProt Q16819).
T2 sequence (Q16819 66-746): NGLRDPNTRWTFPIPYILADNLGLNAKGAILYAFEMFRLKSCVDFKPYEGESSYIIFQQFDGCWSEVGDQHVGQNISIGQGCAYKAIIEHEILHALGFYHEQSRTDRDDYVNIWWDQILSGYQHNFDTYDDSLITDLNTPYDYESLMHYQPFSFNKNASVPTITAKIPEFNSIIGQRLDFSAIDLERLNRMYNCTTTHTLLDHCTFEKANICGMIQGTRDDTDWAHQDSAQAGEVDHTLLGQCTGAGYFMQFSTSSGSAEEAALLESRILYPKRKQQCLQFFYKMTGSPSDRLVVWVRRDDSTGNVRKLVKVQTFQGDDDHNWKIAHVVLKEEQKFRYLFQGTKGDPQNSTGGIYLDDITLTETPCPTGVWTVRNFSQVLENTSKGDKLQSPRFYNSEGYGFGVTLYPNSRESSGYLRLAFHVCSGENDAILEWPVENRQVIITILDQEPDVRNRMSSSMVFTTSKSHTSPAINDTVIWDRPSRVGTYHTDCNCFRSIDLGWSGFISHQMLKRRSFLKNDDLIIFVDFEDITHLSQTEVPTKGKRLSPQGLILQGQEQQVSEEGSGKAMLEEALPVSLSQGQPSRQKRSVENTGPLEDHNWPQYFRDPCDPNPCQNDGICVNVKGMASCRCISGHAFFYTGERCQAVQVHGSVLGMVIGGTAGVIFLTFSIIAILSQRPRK
As to the kind of experiment: meprin α inhibition, quenched fluorogenic peptide substrate assay. As to conditions: for SF: selectivity factor (K i app meprin β/K i app meprin α): meprin α over meprin β. The format is biochemical.

The next assay addresses MMP13 (Homo sapiens, UniProt P45452). Put plainly: off-target proteinase inhibition MMP13. The format is biochemical. As to conditions: read-out: Relative enzyme activity MMP13.
Another assay concerns the target T3, MMP2 (Homo sapiens, UniProt P08253).
T3 sequence (P08253 110-660): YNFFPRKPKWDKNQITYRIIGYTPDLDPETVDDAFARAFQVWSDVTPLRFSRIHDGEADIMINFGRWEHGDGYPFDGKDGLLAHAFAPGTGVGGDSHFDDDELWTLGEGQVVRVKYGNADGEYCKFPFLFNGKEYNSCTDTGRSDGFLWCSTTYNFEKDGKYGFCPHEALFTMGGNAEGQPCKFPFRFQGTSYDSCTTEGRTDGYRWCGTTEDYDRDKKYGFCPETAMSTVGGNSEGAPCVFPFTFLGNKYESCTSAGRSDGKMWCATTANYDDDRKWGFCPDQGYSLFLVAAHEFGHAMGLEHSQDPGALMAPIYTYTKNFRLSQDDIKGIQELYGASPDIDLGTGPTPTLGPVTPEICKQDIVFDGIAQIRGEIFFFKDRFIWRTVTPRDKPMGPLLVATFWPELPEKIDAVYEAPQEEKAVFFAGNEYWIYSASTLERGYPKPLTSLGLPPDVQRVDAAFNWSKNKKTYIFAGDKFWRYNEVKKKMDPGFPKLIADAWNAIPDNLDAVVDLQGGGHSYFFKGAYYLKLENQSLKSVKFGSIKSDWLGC
Put plainly: off-target proteinase inhibition MMP2. The format is biochemical. As to conditions: read-out: Relative enzyme activity MMP2.

For assay [2], the target named is T4, recombinant human meprin β (Homo sapiens, UniProt Q16820).
T4 sequence (Q16820 62-701): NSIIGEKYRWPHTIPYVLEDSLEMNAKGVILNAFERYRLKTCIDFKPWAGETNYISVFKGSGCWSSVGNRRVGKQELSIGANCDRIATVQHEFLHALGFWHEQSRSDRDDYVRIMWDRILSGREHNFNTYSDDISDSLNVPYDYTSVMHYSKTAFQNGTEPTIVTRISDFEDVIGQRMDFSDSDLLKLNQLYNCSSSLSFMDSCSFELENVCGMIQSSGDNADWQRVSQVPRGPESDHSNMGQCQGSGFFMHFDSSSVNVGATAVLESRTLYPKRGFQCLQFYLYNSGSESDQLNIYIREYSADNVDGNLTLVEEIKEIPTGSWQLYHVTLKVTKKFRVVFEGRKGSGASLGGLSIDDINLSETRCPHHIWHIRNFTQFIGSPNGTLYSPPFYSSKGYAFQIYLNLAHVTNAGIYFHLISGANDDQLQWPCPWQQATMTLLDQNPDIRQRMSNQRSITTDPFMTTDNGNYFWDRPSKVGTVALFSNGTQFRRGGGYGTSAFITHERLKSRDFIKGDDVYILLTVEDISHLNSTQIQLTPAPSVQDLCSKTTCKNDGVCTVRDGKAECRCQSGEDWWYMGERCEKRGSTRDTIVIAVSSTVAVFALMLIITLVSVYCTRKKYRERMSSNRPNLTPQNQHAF
Put plainly: meprin β inhibition, quenched fluorogenic peptide substrate assay. The format is biochemical.

The target in the next assay is T5, mouse ovastacin (Mus musculus, UniProt Q6HA09).
T5 sequence (Q6HA09 86-435 limits assumed): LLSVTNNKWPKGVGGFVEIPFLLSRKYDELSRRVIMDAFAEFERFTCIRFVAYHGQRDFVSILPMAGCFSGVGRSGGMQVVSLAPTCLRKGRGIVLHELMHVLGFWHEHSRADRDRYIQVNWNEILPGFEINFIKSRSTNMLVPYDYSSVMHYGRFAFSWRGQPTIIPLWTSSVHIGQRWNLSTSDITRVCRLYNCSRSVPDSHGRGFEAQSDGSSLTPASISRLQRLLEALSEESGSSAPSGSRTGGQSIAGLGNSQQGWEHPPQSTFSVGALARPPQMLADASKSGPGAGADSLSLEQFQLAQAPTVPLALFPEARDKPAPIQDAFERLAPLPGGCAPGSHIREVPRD
As to the kind of experiment: ovastacin inhibition, fluorogenic enzyme activity assay.

Each structure is given as a SMILES string.

Sequence of MMP9 (P14780 107-707 limits assumed): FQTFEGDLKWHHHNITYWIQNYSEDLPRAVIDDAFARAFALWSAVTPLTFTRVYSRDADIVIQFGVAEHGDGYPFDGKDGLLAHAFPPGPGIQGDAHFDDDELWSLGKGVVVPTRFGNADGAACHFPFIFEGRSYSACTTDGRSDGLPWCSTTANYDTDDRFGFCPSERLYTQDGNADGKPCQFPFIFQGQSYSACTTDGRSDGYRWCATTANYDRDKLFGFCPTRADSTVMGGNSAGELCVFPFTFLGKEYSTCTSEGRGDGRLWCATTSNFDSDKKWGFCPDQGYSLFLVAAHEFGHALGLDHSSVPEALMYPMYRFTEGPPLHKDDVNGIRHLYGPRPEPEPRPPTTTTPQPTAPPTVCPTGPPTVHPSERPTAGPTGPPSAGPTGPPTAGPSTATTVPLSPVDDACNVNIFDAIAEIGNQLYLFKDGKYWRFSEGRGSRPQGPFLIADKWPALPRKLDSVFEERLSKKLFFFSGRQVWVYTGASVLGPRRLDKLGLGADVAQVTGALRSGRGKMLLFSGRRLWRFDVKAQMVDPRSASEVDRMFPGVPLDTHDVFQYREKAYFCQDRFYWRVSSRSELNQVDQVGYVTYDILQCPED

A word on the Ki: it is the equilibrium dissociation constant of an inhibitor or competing ligand from its target. Consider `O=C(Cn1c(-c2ccccc2)ccc1-c1ccccc1)NO` [2 a, 2‐(2,5‐Diphenylpyrrol‐1‐yl)ethanehydroxamic acid], for which the remaining activity at 10 µM at ADAM10 stood at 82%; on ADAM17, 82%; at MMP9 it was 92%; on MMP13, 79%; on MMP2, 83%. Moreover, the remaining activity at 200 µM at ADAM10 is 29%; at ADAM17, 25%; on MMP9, 1%; at MMP13, 5%; on MMP2, 1%. For the same compound, the Ki in assay [1] was 20 nM; in assay [2], 4310 nM. In addition, in assay [1] (compared to 1 d), the “fold improvement in potency against meprin α compared to amine 1 d” value is listed as ~400 fold. Also, the “SF: selectivity factor (K i app meprin β/K i app meprin α)” value (“SF: selectivity factor” for short) in assay [1] is 216.
For `O=C(CCn1c(-c2ccccc2)ccc1-c1ccccc1)NO` [2 b, 3‐(2,5‐Diphenylpyrrol‐1‐yl)propanehydroxamic acid], in assay [1], the Ki worked out at 736 nM and the “SF: selectivity factor” value came to 20. Also, the Ki in assay [2] worked out at 15000 nM.
In the case of `O=C(CCn1c(-c2ccccc2)nnc1-c1ccccc1)NO` [2 h, 3‐(3,5‐Diphenyl‐1,2,4‐triazol‐4‐yl)propanehydroxamic acid], in assay [1], the Ki was found to be 306 nM and the “SF: selectivity factor” value was found to be 138. Moreover, at mouse ovastacin, the Ki was determined as 31800 nM, the “SF Meprin α: selectivity factor (K i app ovastacin/K i app meprin α)” value (“SF Meprin α: selectivity factor” below) was determined as 104 and the “SF Meprin β: selectivity factor (K i app ovastacin/K i app meprin β)” value (“SF Meprin β: selectivity factor” for short) was determined as 0.8. The Ki in assay [2] turned out to be 42300 nM.
On to `O=C(Cc1c(-c2ccccc2)ncn1-c1ccccc1)NO` [2 i, 2‐(3,5‐Diphenylimidazol‐4‐yl)ethanehydroxamic acid], for which, in assay [1], the Ki was 2 nM and the “SF: selectivity factor” value is listed as 222. In assay [2], the Ki was found to be 443 nM.
As for `O=C(Cc1c(-c2ccccc2)nnn1-c1ccccc1)NO` [2 j, 2‐(3,5‐Diphenyl‐1,2,3‐triazol‐4‐yl)ethanehydroxamic acid], in assay [1], the Ki turned out to be 9 nM and the “SF: selectivity factor” value came to 161. For the same compound, the Ki in assay [2] came to 1450 nM.
With `O=C(Cn1nc(-c2ccccc2)cc1-c1ccccc1)NO` [3 a, 2‐(3,5‐Diphenylpyrazol‐1‐yl)ethanehydroxamic acid], in assay [1], the Ki worked out at 256 nM and the “SF: selectivity factor” value is reported as 41. At mouse ovastacin, the inhibitory constant (Ki) came out at 1050 nM, the “SF Meprin α: selectivity factor” value is listed as 4 and the “SF Meprin β: selectivity factor” value is on record as 0.1. For the same compound, the Ki in assay [2] amounted to 10400 nM.
On to `O=C(CCn1nc(-c2ccccc2)cc1-c1ccccc1)NO` [3 b, 3‐(3,5‐Diphenylpyrazol‐1‐yl)propanehydroxamic acid], for which, in assay [1], the Ki was 406 nM and the “SF: selectivity factor” value is 38. At mouse ovastacin, the Ki was 1100 nM, the “SF Meprin α: selectivity factor” value is given as 3 and the “SF Meprin β: selectivity factor” value was 0.1. In assay [2], the Ki was found to be 15400 nM.
On to `O=C(CCn1c(-c2ccccc2)cc2ccccc21)NO` [4 b, 3‐(2‐Phenylindol‐1‐yl)propanehydroxamic acid], for which, in assay [1], the Ki worked out at 414 nM and the “SF: selectivity factor” value was 41. On mouse ovastacin, the Ki came out at 1300 nM, the “SF Meprin α: selectivity factor” value is given as 3.1 and the “SF Meprin β: selectivity factor” value amounted to 0.1. The Ki in assay [2] worked out at 17000 nM.
As to `O=C(CCn1c(-c2ccccc2)nc2ccccc21)NO` [4 d, 3‐(2‐Phenylbenzimidazol‐1‐yl)propanehydroxamic acid], in assay [1], the Ki worked out at 1030 nM and the “SF: selectivity factor” value was 27. In addition, at mouse ovastacin, the Ki came out at 9800 nM, the “SF Meprin α: selectivity factor” value came to 9.5 and the “SF Meprin β: selectivity factor” value came out at 0.4. Further, the Ki in assay [2] worked out at 27900 nM.
Turning to `O=C(Cc1c(-c2ccccc2)[nH]c2ccccc12)NO` [4 e, 2‐(2‐Phenyl‐1H‐indol‐3‐yl)ethanehydroxamic acid], in assay [1], the Ki turned out to be 82 nM and the “SF: selectivity factor” value amounted to 14. For the same compound, the Ki in assay [2] was found to be 1180 nM.
`O=C(Cn1c(-c2ccccc2)nc2cccnc21)NO` [4 f, 2‐(2‐Phenylimidazo[4,5‐b]pyridin‐3‐yl)ethanehydroxamic acid]: the results for the Ki in assay [1] and in assay [2] were 262 nM and 4560 nM, respectively. For the same compound, the “SF: selectivity factor” value in assay [1] is 17.
Regarding `O=C(Cn1c(-c2ccccc2)nc2ncccc21)NO` [4 g, 2‐(2‐Phenylimidazo[4,5‐b]pyridin‐1‐yl)ethane‐hydroxamic acid], the Ki in assay [1] is 1480 nM; in assay [2] it was 4170 nM. For the same compound, the “SF: selectivity factor” value in assay [1] was 3.
Regarding `O=C(Cc1c2ccccc2nn1-c1ccccc1)NO` [4 h, 2‐(2‐Phenylindazol‐3‐yl)ethanehydroxamic acid], in assay [1], the Ki was 273 nM and the “SF: selectivity factor” value is reported as 12. The Ki in assay [2] was 3360 nM.
`CCCCC[C@H](CC(=O)NO)C(=O)N[C@H](C(=O)N1CCC[C@H]1CO)C(C)C` [Actinonin, reference compound]: in assay [1], the Ki worked out at 8 nM and the “SF: selectivity factor” value stood at 27. Also, in assay [2], the Ki came out at 219 nM.
